# Laboratory results taken from patent US5273982A, “Acetic acid derivatives” (Hoffmann-La Roche Inc., priority 1990, dated 1993).
# Target: T1, fibrinogen receptor, glycoprotein IIb/IIIa (Homo sapiens, UniProt P05106+P08514)
# T1 construct: obtained from Triton X-100 extracts of human blood platelets; from tissue; host or cells: human blood platelets (Triton X-100 extract)
# Assay: Inhibition of fibrinogen binding to immobilised fibrinogen receptor glycoprotein IIb/IIIa (ELISA)
# Conditions: glycoprotein IIb/IIIa from human blood platelets, bound to microtiter plates, read-out: IC50 (concentration required to inhibit the binding of fibrinogen to the immobilised receptor by 50%)
# From the text: The inhibition of fibrinogen […] on the fibrinogen receptor, glycoprotein IIb/IIIa, can be detected as follows:
# Glycoprotein IIb/IIIa is obtained from Triton X-100 extracts of human blood platelets and purified by lectin affinity chromatography (Analytical Biochemistry 151, 1985, 169-177) and chromatography on an Arg-Gly-Asp-Ser affinity column (Science 231, 1986, 1559-62). The receptor protein thus obtained is bound to microtiter plates. The specific binding of fibrinogen to the immobilized receptor is determined with the aid of an ELISA system ("enzyme-linked immunosorbent assay"). The IC50 values below correspond to the concentration of the test substance which is required in order to inhibit the binding of fibrinogen to the immobilised receptor by 50%: […]
# T1 sequence (P08514 32-887 limits assumed): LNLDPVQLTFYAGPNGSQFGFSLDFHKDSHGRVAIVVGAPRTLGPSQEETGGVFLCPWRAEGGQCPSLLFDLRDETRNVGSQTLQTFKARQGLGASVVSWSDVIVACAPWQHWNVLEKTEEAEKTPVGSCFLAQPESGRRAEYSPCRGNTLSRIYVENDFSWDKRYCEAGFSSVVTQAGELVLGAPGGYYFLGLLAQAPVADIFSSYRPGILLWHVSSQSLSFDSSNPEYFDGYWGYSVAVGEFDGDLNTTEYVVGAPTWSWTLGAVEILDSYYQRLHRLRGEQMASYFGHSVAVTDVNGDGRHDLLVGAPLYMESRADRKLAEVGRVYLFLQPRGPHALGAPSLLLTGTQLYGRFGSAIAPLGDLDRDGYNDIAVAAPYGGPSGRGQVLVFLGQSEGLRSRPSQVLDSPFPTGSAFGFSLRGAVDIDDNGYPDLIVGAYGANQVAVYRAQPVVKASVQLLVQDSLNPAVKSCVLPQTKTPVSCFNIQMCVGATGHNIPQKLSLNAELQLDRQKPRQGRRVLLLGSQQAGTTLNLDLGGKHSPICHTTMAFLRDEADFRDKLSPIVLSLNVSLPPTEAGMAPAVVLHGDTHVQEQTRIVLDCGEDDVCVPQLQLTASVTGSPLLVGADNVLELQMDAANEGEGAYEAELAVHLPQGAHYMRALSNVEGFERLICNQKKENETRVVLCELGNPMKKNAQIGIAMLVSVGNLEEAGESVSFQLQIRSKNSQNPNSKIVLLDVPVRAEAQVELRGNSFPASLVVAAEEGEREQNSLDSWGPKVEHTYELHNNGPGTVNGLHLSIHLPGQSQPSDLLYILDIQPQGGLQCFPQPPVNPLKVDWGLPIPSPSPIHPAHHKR
# T1 sequence (P08514 891-1039 partner limits assumed): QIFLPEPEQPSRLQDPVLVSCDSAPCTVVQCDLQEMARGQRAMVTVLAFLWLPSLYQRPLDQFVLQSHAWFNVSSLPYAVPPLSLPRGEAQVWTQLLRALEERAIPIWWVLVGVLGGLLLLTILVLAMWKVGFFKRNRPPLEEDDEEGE
# T1 sequence (P05106 27-788): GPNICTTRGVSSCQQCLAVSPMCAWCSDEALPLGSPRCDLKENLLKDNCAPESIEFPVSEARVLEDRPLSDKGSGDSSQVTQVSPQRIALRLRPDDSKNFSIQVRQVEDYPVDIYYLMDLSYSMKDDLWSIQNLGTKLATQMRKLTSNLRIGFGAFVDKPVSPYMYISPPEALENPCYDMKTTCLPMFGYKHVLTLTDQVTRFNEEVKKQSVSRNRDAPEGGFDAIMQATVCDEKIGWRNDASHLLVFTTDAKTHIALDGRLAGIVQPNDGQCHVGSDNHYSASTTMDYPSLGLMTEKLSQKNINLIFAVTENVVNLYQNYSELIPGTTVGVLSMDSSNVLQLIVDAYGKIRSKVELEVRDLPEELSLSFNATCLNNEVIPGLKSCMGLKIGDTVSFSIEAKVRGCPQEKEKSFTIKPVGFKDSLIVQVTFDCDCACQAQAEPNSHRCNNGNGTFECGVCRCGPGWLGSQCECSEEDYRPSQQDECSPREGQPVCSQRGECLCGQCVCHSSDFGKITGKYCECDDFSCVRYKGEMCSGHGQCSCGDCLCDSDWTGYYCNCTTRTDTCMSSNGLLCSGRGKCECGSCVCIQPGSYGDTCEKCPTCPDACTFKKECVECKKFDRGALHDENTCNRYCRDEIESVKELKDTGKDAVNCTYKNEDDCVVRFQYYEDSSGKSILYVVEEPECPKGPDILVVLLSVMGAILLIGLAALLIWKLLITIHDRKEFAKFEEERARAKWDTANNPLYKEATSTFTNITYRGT
row,Structure (SMILES),IC50 [nM]
1,"N=C(N)c1ccc(C(=O)N2CCCC(C(=O)NCCC(=O)O)C2)cc1 (racemic) [Example 7, rac-N-[[1-(p-amidinobenzoyl)-3-piperi-dinyl]carbonyl]-β-alanine]",27
2,"N=C(N)c1ccc(C(=O)NC(CC(=O)NCCC(=O)O)c2ccccc2)cc1 (racemic) [Example 10, N-[(DL)-N-(p-amidinobenzoyl)-3-phenyl-β-alanyl]-β-alanine]",22
3,"N=C(N)c1ccc(C(=O)NCCC(=O)N[C@@H](CC(=O)O)C(=O)N[C@@H](Cc2ccccc2)C(=O)O)cc1 [Example 1, N-[N-[N-(p-amidinobenzoyl)-β-alanyl]-L-α-aspartyl]-3-phenyl-L-alanine]",0.3
4,"N=C(N)N1CCC(C(=O)NCCC(=O)N[C@@H](CC(=O)O)C(=O)N[C@@H](Cc2ccccc2)C(=O)O)CC1 [Example 2, N-[N-[N-(1-amidino-4-piperidinylcarbonyl)-β-alanyl]-L-α-aspartyl]-3-phenyl-L-alanine]",130
5,"N=C(N)c1ccc(CC(=O)NCCC(=O)N[C@@H](CC(=O)O)C(=O)N[C@@H](Cc2ccccc2)C(=O)O)cc1 [Example 3, N-[N-[N-(p-amidinophenylacetyl)-β-alanyl]-L-α-aspartyl]-3-phenyl-L-alanine]",45
6,"N=C(N)c1ccc(NC(=O)CCCC(=O)N[C@@H](CC(=O)O)C(=O)N[C@@H](Cc2ccccc2)C(=O)O)cc1 [Example 4, N-[N-[4-(p-amidinophenylcarbamoyl)butyryl]-L-α-aspartyl]-3-phenyl-L-alanine]",35
7,"N=C(N)c1ccc(CCNC(=O)CC(=O)N[C@@H](CC(=O)O)C(=O)N[C@@H](Cc2ccccc2)C(=O)O)cc1 [Example 5, N-[N-[(p-amidinophenethylcarbamoyl)acetyl]-L-α-aspartyl]-3-phenyl-L-alanine]",10
8,"CC(C)[C@H](NC(=O)[C@H](CC(=O)O)NC(=O)CCCNC(=O)c1ccc(C(=N)N)cc1)C(=O)O [Example 6, N-[N-[4-(p-amidinobenzamido)butyryl]-L-α-aspartyl]-L-valine]",10
9,"N=C(N)c1ccc(C(=O)NCCCC(=O)NCCC(=O)O)cc1 [Example 8, N-[4-(p-amidinobenzamido)butyryl]-β-alanine]",100
10,"N=C(N)c1ccc(C(=O)NCCC(=O)NCCC(=O)O)cc1 [Example 9, N-[N-(p-amidino-benzoyl)-β-alanyl]-β-alanine]",5
11,"N=C(N)c1ccc(C(=O)NCCCCC(=O)N[C@@H](CC(=O)O)C(=O)N[C@@H](Cc2ccccc2)C(=O)O)cc1 [Example 11, N-[N-[5-(p-amidinobenzamido)valeryl]-L-α-aspartyl]-3-phenyl-L-alanine]",2.5
12,"CC(C)C[C@H](NC(=O)[C@H](CC(=O)O)NC(=O)CCNC(=O)c1ccc(C(=N)N)cc1)C(=O)OC(C)C [Example 18, N-[N-[N-(p-amidino-benzoyl)-β-alanyl]-L-α-aspartyl]-L-leucine isopropyl ester]",10
13,"CC(C)COC(=O)[C@H](CC(=O)O)NC(=O)CCCCNC(=O)c1ccc(C(=N)N)cc1 [Example 25, isobutyl N-[5-(p-amidinobenzamido)valeryl]-L-α-aspartate]",6.7
14,"CCOC(=O)[C@H](CO)NC(=O)[C@H](CC(=O)O)NC(=O)CCNC(=O)c1ccc(C(=N)N)cc1 [Example 28, N-[N-[N-(p-amidinobenzoyl)-β-alanyl]-L-α-aspartyl]-L-serine ethyl ester]",5
15,"N=C(N)c1ccc(C(=O)N2CC[C@@H](C(=O)N[C@@H](CC(=O)O)C(=O)N[C@@H](Cc3ccccc3)C(=O)O)C2)cc1 [Example 31, N-[N-[[(R)-1-(p-amidinobenzoyl)-3-pyrrolidinyl]carbonyl]-L-α-aspartyl]-3-phenyl-L-alanine]",12.8
16,"CC(C)[C@H](NC(=O)[C@H](CC(=O)O)NC(=O)CCNC(=O)c1ccc(C(=N)N)cc1)C(=O)O [Example 38, N-[N-[N-(p-amidinobenzoyl)-β-alanyl]-L-α-aspartyl]-L-valine]",3.6
17,N=C(N)c1ccc(C(=O)NCCC(=O)N[C@@H](CC(=O)O)C(=O)N[C@@H](Cc2ccc(O)cc2)C(=O)O)cc1 [Example 39],1.2
